In patent publication US9708314B2, “Heterocyclic amide compound” (NISSAN CHEMICAL INDUSTRIES, LTD., priority 2013, dated 2017):

Legend:
Format in all cases: in vivo
[1] = test system: Echinochloa crus-galli var. crus-galli; experiment: Test Example 3: herbicidal effect by application to foliage (Wagner pot, water depth 0.1-0.5 cm); conditions: Nineteenth Table; application to foliage; application herbicide amount 320 g/ha
Outline: (§1)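 Rice-field weeds and directly sown rice were grown 14 days in flooded alluvial soil (water depth 0.1–0.5 cm) at 25–30 °C in a greenhouse. An emulsion formulation diluted to the stated g/ha rate was sprayed onto stems and leaves. Effects were scored on a 0–5 scale (herbicidal ratio bands) three weeks after treatment.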

Leptochloa chinensis = experiment: as above; conditions: Nineteenth Table; application to foliage; application herbicide amount 320 g/ha
Outline: as §1

[2] = test system: directly sowed Oryza sativa; experiment: Test Example 3: effect on crop by application to foliage (Wagner pot, water depth 0.1-0.5 cm); conditions: Nineteenth Table; application to foliage; application herbicide amount 320 g/ha
Outline: as §1

Abutilon theophrasti = experiment: Test Example 4: herbicidal effect by application to foliage (diluvial soil, plastic box); conditions: application to foliage; for M: herbicidal effect on Abutilon theophrasti: application herbicide amount 320 g/ha; for herbicidal effect, M (Abutilon theophrasti): 320 g/ha
Outline: (§2)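 Read-out is a 0–5 visual grade of herbicidal ratio (5: ≥90%, almost withered; 0: ≤5%) taken three weeks after treatment. Compound was applied as a diluted emulsion to stem and leaf parts of 14-day greenhouse-grown plants (25° C. to 30° C.) at rates expressed as g/ha.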

Alopecurus myosuroides = experiment: as above; conditions: application to foliage; for J: herbicidal effect on Alopecurus myosuroides: application herbicide amount 320 g/ha; for herbicidal effect, J (Alopecurus myosuroides): 320 g/ha
Outline: as §2

Amaranthus retroflexus = experiment: as above; conditions: application to foliage; for N: herbicidal effect on Amaranthus retroflexus: application herbicide amount 320 g/ha; for herbicidal effect, N (Amaranthus retroflexus): 320 g/ha
Outline: as §2

Apera spica-venti. = experiment: as above; conditions: application to foliage; for L: herbicidal effect on Apera spica-venti.: application herbicide amount 320 g/ha; for herbicidal effect, L (Apera spica-venti.): 320 g/ha
Outline: as §2

Avena fatua = experiment: as above; conditions: application to foliage; for I: herbicidal effect on Avena fatua: application herbicide amount 320 g/ha; for herbicidal effect, I (Avena fatua): 320 g/ha
Outline: as §2

Chenopodium album = experiment: as above; conditions: application to foliage; for O: herbicidal effect on Chenopodium album: application herbicide amount 320 g/ha; for herbicidal effect, O (Chenopodium album): 320 g/ha
Outline: as §2

Digitaria ciliaris = experiment: as above; conditions: application to foliage; for F: herbicidal effect on Digitaria ciliaris: application herbicide amount 320 g/ha; for herbicidal effect, F (Digitaria ciliaris): 320 g/ha
Outline: as §2

[3] = test system: Echinochloa crus-galli var. crus-galli; experiment: as above; conditions: application to foliage; for H: herbicidal effect on Echinochloa crus-galli var. crus-galli: application herbicide amount 320 g/ha; for herbicidal effect, H (Echinochloa crus-galli var. crus-galli): 320 g/ha
Outline: as §2

Galium spurium = experiment: as above; conditions: application to foliage; for Q: herbicidal effect on Galium spurium: application herbicide amount 320 g/ha; for herbicidal effect, Q (Galium spurium): 320 g/ha
Outline: as §2

Lolium multiflorum Lam. = experiment: as above; conditions: application to foliage; for K: herbicidal effect on Lolium multiflorum Lam.: application herbicide amount 320 g/ha; for herbicidal effect, K (Lolium multiflorum Lam.): 320 g/ha
Outline: as §2

Setaria viridis = experiment: as above; conditions: application to foliage; for G: herbicidal effect on Setaria viridis: application herbicide amount 320 g/ha; for herbicidal effect, G (Setaria viridis): 320 g/ha
Outline: as §2

Stellaria media = experiment: as above; conditions: application to foliage; for P: herbicidal effect on Stellaria media: application herbicide amount 320 g/ha; for herbicidal effect, P (Stellaria media): 320 g/ha
Outline: as §2

Veronica persica = experiment: as above; conditions: application to foliage; for R: herbicidal effect on Veronica persica: application herbicide amount 320 g/ha; for herbicidal effect, R (Veronica persica): 320 g/ha
Outline: as §2

SMILES | H (herbicidal effect grade) [1] | D (herbicidal effect grade) (Leptochloa chinensis) | b (effect on crop grade) [2] | M: herbicidal effect on Abutilon theophrasti (Abutilon theophrasti) | J: herbicidal effect on Alopecurus myosuroides (Alopecurus myosuroides) | N: herbicidal effect on Amaranthus retroflexus (Amaranthus retroflexus) | L: herbicidal effect on Apera spica-venti. (Apera spica-venti.) | herbicidal effect, M (Abutilon theophrasti) (Abutilon theophrasti) | herbicidal effect, J (Alopecurus myosuroides) (Alopecurus myosuroides) | herbicidal effect, N (Amaranthus retroflexus) (Amaranthus retroflexus) | herbicidal effect, L (Apera spica-venti.) (Apera spica-venti.) | herbicidal effect, I (Avena fatua) (Avena fatua) | herbicidal effect, O (Chenopodium album) (Chenopodium album) | herbicidal effect, F (Digitaria ciliaris) (Digitaria ciliaris) | herbicidal effect, H (Echinochloa crus-galli var. crus-galli) [3] | herbicidal effect, Q (Galium spurium) (Galium spurium) | herbicidal effect, K (Lolium multiflorum Lam.) (Lolium multiflorum Lam.) | herbicidal effect, G (Setaria viridis) (Setaria viridis) | herbicidal effect, P (Stellaria media) (Stellaria media) | herbicidal effect, R (Veronica persica) (Veronica persica) | other results
COc1ccc(N(C)c2nnc3c(C(=O)Nc4nnco4)ccc(C(F)(F)F)n23)cc1 [1-171] | 4 (Herbicidal ratio of 70% or more and less than 90%) | 4 (Herbicidal ratio of 70% or more and less than 90%) | 0 (Herbicidal ratio of 5% or less (almost no effect)) | 4 (Herbicidal ratio of 70% or more and less than 90%) | 0 (Herbicidal ratio of 5% or less (almost no effect)) | 4 (Herbicidal ratio of 70% or more and less than 90%) | 1 (Herbicidal ratio of 5% or more and less than 20%) |  |  |  |  |  |  |  |  |  |  |  |  |  | I: herbicidal effect on Avena fatua (Avena fatua): 0 (Herbicidal ratio of 5% or less (almost no effect)); O: herbicidal effect on Chenopodium album (Chenopodium album): 5 (Herbicidal ratio of 90% or more (almost completely withered)); F: herbicidal effect on Digitaria ciliaris (Digitaria ciliaris): 3 (Herbicidal ratio of 40% or more and less than 70%); H: herbicidal effect on Echinochloa crus-galli var. crus-galli [3]: 5 (Herbicidal ratio of 90% or more (almost completely withered)); Q: herbicidal effect on Galium spurium (Galium spurium): 2 (Herbicidal ratio of 20% or more and less than 40%); K: herbicidal effect on Lolium multiflorum Lam. (Lolium multiflorum Lam.): 0 (Herbicidal ratio of 5% or less (almost no effect)); G: herbicidal effect on Setaria viridis (Setaria viridis): 3 (Herbicidal ratio of 40% or more and less than 70%); P: herbicidal effect on Stellaria media (Stellaria media): 5 (Herbicidal ratio of 90% or more (almost completely withered)); R: herbicidal effect on Veronica persica (Veronica persica): 3 (Herbicidal ratio of 40% or more and less than 70%)
C=CCN(C)c1nnc2c(C(=O)Nc3nnco3)ccc(C(F)(F)F)n12 [1-172] | 5 (Herbicidal ratio of 90% or more (almost completely withered)) | 5 (Herbicidal ratio of 90% or more (almost completely withered)) | 3 (Herbicidal ratio of 40% or more and less than 70%) | 5 (Herbicidal ratio of 90% or more (almost completely withered)) | 1 (Herbicidal ratio of 5% or more and less than 20%) | 5 (Herbicidal ratio of 90% or more (almost completely withered)) | 1 (Herbicidal ratio of 5% or more and less than 20%) |  |  |  |  |  |  |  |  |  |  |  |  |  | I: herbicidal effect on Avena fatua (Avena fatua): 2 (Herbicidal ratio of 20% or more and less than 40%); O: herbicidal effect on Chenopodium album (Chenopodium album): 5 (Herbicidal ratio of 90% or more (almost completely withered)); F: herbicidal effect on Digitaria ciliaris (Digitaria ciliaris): 5 (Herbicidal ratio of 90% or more (almost completely withered)); H: herbicidal effect on Echinochloa crus-galli var. crus-galli [3]: 5 (Herbicidal ratio of 90% or more (almost completely withered)); Q: herbicidal effect on Galium spurium (Galium spurium): 4 (Herbicidal ratio of 70% or more and less than 90%); K: herbicidal effect on Lolium multiflorum Lam. (Lolium multiflorum Lam.): 1 (Herbicidal ratio of 5% or more and less than 20%); G: herbicidal effect on Setaria viridis (Setaria viridis): 4 (Herbicidal ratio of 70% or more and less than 90%); P: herbicidal effect on Stellaria media (Stellaria media): 5 (Herbicidal ratio of 90% or more (almost completely withered)); R: herbicidal effect on Veronica persica (Veronica persica): 4 (Herbicidal ratio of 70% or more and less than 90%)
COc1ccc(N(C)c2nnc3c(C(=O)Nc4nnnn4C)ccc(C(F)(F)F)n23)cc1 [2-099] | 5 (Herbicidal ratio of 90% or more (almost completely withered)) | 5 (Herbicidal ratio of 90% or more (almost completely withered)) | 4 (Herbicidal ratio of 70% or more and less than 90%) |  |  |  |  | 4 (Herbicidal ratio of 70% or more and less than 90%) | 0 (Herbicidal ratio of 5% or less (almost no effect)) | 4 (Herbicidal ratio of 70% or more and less than 90%) | 1 (Herbicidal ratio of 5% or more and less than 20%) | 2 (Herbicidal ratio of 20% or more and less than 40%) | 5 (Herbicidal ratio of 90% or more (almost completely withered)) | 5 (Herbicidal ratio of 90% or more (almost completely withered)) | 5 (Herbicidal ratio of 90% or more (almost completely withered)) | 4 (Herbicidal ratio of 70% or more and less than 90%) | 1 (Herbicidal ratio of 5% or more and less than 20%) | 4 (Herbicidal ratio of 70% or more and less than 90%) | 5 (Herbicidal ratio of 90% or more (almost completely withered)) | 5 (Herbicidal ratio of 90% or more (almost completely withered)) | 
C=CCN(C)c1nnc2c(C(=O)Nc3nnnn3C)ccc(C(F)(F)F)n12 [2-100] | 5 (Herbicidal ratio of 90% or more (almost completely withered)) | 5 (Herbicidal ratio of 90% or more (almost completely withered)) | 3 (Herbicidal ratio of 40% or more and less than 70%) |  |  |  |  | 5 (Herbicidal ratio of 90% or more (almost completely withered)) | 2 (Herbicidal ratio of 20% or more and less than 40%) | 5 (Herbicidal ratio of 90% or more (almost completely withered)) | 4 (Herbicidal ratio of 70% or more and less than 90%) | 3 (Herbicidal ratio of 40% or more and less than 70%) | 5 (Herbicidal ratio of 90% or more (almost completely withered)) | 5 (Herbicidal ratio of 90% or more (almost completely withered)) | 5 (Herbicidal ratio of 90% or more (almost completely withered)) | 5 (Herbicidal ratio of 90% or more (almost completely withered)) | 3 (Herbicidal ratio of 40% or more and less than 70%) | 4 (Herbicidal ratio of 70% or more and less than 90%) | 5 (Herbicidal ratio of 90% or more (almost completely withered)) | 5 (Herbicidal ratio of 90% or more (almost completely withered)) | 
COCCSc1nnc2c(C(=O)Nc3nnnn3C)ccc(C(F)(F)F)n12 [2-101] | 5 (Herbicidal ratio of 90% or more (almost completely withered)) | 5 (Herbicidal ratio of 90% or more (almost completely withered)) | 4 (Herbicidal ratio of 70% or more and less than 90%) |  |  |  |  | 5 (Herbicidal ratio of 90% or more (almost completely withered)) | 3 (Herbicidal ratio of 40% or more and less than 70%) | 5 (Herbicidal ratio of 90% or more (almost completely withered)) | 4 (Herbicidal ratio of 70% or more and less than 90%) | 3 (Herbicidal ratio of 40% or more and less than 70%) | 5 (Herbicidal ratio of 90% or more (almost completely withered)) | 5 (Herbicidal ratio of 90% or more (almost completely withered)) | 5 (Herbicidal ratio of 90% or more (almost completely withered)) | 4 (Herbicidal ratio of 70% or more and less than 90%) | 3 (Herbicidal ratio of 40% or more and less than 70%) | 5 (Herbicidal ratio of 90% or more (almost completely withered)) | 5 (Herbicidal ratio of 90% or more (almost completely withered)) | 5 (Herbicidal ratio of 90% or more (almost completely withered)) | 
C=CCSc1nnc2c(C(=O)Nc3nnnn3C)ccc(C(F)(F)F)n12 [2-102] | 5 (Herbicidal ratio of 90% or more (almost completely withered)) | 4 (Herbicidal ratio of 70% or more and less than 90%) | 1 (Herbicidal ratio of 5% or more and less than 20%) |  |  |  |  | 5 (Herbicidal ratio of 90% or more (almost completely withered)) | 0 (Herbicidal ratio of 5% or less (almost no effect)) | 5 (Herbicidal ratio of 90% or more (almost completely withered)) | 3 (Herbicidal ratio of 40% or more and less than 70%) | 1 (Herbicidal ratio of 5% or more and less than 20%) | 5 (Herbicidal ratio of 90% or more (almost completely withered)) | 5 (Herbicidal ratio of 90% or more (almost completely withered)) | 5 (Herbicidal ratio of 90% or more (almost completely withered)) | 3 (Herbicidal ratio of 40% or more and less than 70%) | 1 (Herbicidal ratio of 5% or more and less than 20%) | 4 (Herbicidal ratio of 70% or more and less than 90%) | 5 (Herbicidal ratio of 90% or more (almost completely withered)) | 5 (Herbicidal ratio of 90% or more (almost completely withered)) | 
